System: desired test plant species
Experiment: Foliar-applied postemergence herbicidal activity in direct seeded rice (Table 6)
Assay type: in vivo
Details: 21 DAA
Excerpt: Seeds or nutlets of the desired test plant species were planted in a soil matrix prepared by mixing a loam soil (43 percent silt, 19 percent clay, and 38 percent sand, with a pH of about 8.1 and an organic matter content of about 1.5 percent) and river sand in an 80 to 20 ratio. The soil matrix was contained in plastic pots with a surface area of 139.7 cm^2. When required to ensure good germination and healthy plants, a fungicide treatment and/or other chemical or physical treatment was applied. The plants were grown for 10-17 d in a greenhouse with an approximate 14-h photoperiod which was maintained at about 29° C. during the day and 26° C. during the night. Nutrients and water were added on a regular basis and supplemental lighting was provided with overhead metal halide 1000-Watt lamps as necessary. The plants were employed for testing when they reached the second or third true leaf stage. Treatments consisted of compounds 45, 34, and 66. Weighed amounts of technical compounds were placed in individual 25 mL glass vials and dissolved in 8 mL of 97:3 v/v acetone-DMSO to obtain stock solutions. […] The spray application solutions were prepared by removing 4 mL of the stock solution and diluting with 4 mL of 97:3 v/v acetone-DMSO and continued serial dilution to obtain 1⁄2×, 1⁄4×, 1⁄8×, and 1/16× rates of the high rate. Spray solutions were diluted to the appropriate final concentrations with the addition of 8 mL of an aqueous mixture of 1.875% (v/v) Agri-dex crop oil concentrate. The final 12-mL spray solutions each contained 1.25% (v/v) Agri-dex crop oil concentrate, 32.3% acetone, and 1.0% DMSO. Compound requirements are based upon a 12 mL application volume at a rate of 187 L/ha. Spray solutions were applied to the plant material with an overhead Mandel track sprayer equipped with […] nozzles calibrated to deliver 187 L/ha over an application area of 0.503 square meters (m^2) at a spray height of 18 inches ([…]) above average plant canopy height. Control plants were sprayed in the same manner with the solvent blank. The treated plants and control plants were placed in a greenhouse as described above and watered by sub-irrigation to prevent wash-off of the test compounds. After approximately 3 weeks, the condition of the test plants, compared with that of the untreated plants, was determined visually and scored on a scale of 0 to 100 percent where 0 corresponds to no injury and 100 corresponds to complete kill. By applying the well-accepted probit analysis as described by J. Berkson in Journal of the […], 48, 565 (1953) and by D. Finney in “Probit Analysis” Cambridge University Press (1952) or by plotting the mean data and fitting a logarithmic curve to the portion of the data where there was a dose response using Microsoft Excel®, the above data can be used to calculate GR50 and GR90 values, which are defined as growth reduction factors that correspond to the effective dose of herbicide required to kill or control 50 percent or 90 percent, respectively, of a target plant.

Compound: COc1c(C(=O)OCc2ccccc2)nc(-c2ccc(Cl)c(OC)c2F)c(F)c1N [Compound 66, benzyl 4-amino-6-(4-chloro-2-fluoro-3-methoxyphenyl)-5-fluoro-3-methoxypicolinate]
- Mean Visual Injury (%)-21 Days After Application ECHCO (ECHCO (Echinochloa colonum, junglerice), 4.38 g ae/ha): 80%
- Mean Visual Injury (%)-21 Days After Application ECHCO (ECHCO (Echinochloa colonum, junglerice), 8.75 g ae/ha): 89%
- Mean Visual Injury (%)-21 Days After Application ECHCO (ECHCO (Echinochloa colonum, junglerice), 17.5 g ae/ha): 93%
- Mean Visual Injury (%)-21 Days After Application ECHCO (ECHCO (Echinochloa colonum, junglerice), 35 g ae/ha): 94%
- Mean Visual Injury (%)-21 Days After Application ECHCO (ECHCO (Echinochloa colonum, junglerice), 70 g ae/ha): 94%
- GR50 ECHCO (ECHCO (Echinochloa colonum, junglerice), dose to kill or control 50 percent): <2.19 g ae/ha
- GR90 ECHCO (ECHCO (Echinochloa colonum, junglerice), dose to kill or control 90 percent): 11.6 g ae/ha
- Mean Visual Injury (%)-21 Days After Application LEFCH (LEFCH (Leptochloa chinensis, Chinese sprangletop), 2.19 g ae/ha): 0%
- Mean Visual Injury (%)-21 Days After Application LEFCH (LEFCH (Leptochloa chinensis, Chinese sprangletop), 4.38 g ae/ha): 7%
- Mean Visual Injury (%)-21 Days After Application LEFCH (LEFCH (Leptochloa chinensis, Chinese sprangletop), 8.75 g ae/ha): 15%
- Mean Visual Injury (%)-21 Days After Application LEFCH (LEFCH (Leptochloa chinensis, Chinese sprangletop), 17.5 g ae/ha): 32%
- Mean Visual Injury (%)-21 Days After Application LEFCH (LEFCH (Leptochloa chinensis, Chinese sprangletop), 35 g ae/ha): 26%
- Mean Visual Injury (%)-21 Days After Application LEFCH (LEFCH (Leptochloa chinensis, Chinese sprangletop), 70 g ae/ha): 40%
- GR50 LEFCH (LEFCH (Leptochloa chinensis, Chinese sprangletop), dose to kill or control 50 percent): >70 g ae/ha
- GR90 LEFCH (LEFCH (Leptochloa chinensis, Chinese sprangletop), dose to kill or control 90 percent): >70 g ae/ha
- Mean Visual Injury (%)-21 Days After Application ORYSA ‘Clearfield 171’ (ORYSA (Oryza sativa ‘Clearfield 171’, rice), 2.19 g ae/ha): 0%
- Mean Visual Injury (%)-21 Days After Application ORYSA ‘Clearfield 171’ (ORYSA (Oryza sativa ‘Clearfield 171’, rice), 4.38 g ae/ha): 0%
- Mean Visual Injury (%)-21 Days After Application ORYSA ‘Clearfield 171’ (ORYSA (Oryza sativa ‘Clearfield 171’, rice), 8.75 g ae/ha): 1%
- Mean Visual Injury (%)-21 Days After Application ORYSA ‘Clearfield 171’ (ORYSA (Oryza sativa ‘Clearfield 171’, rice), 17.5 g ae/ha): 2%
- Mean Visual Injury (%)-21 Days After Application ORYSA ‘Clearfield 171’ (ORYSA (Oryza sativa ‘Clearfield 171’, rice), 35 g ae/ha): 6%
- Mean Visual Injury (%)-21 Days After Application ORYSA ‘Clearfield 171’ (ORYSA (Oryza sativa ‘Clearfield 171’, rice), 70 g ae/ha): 8%
- GR50 ORYSA ‘Clearfield 171’ (ORYSA (Oryza sativa ‘Clearfield 171’, rice), dose to kill or control 50 percent): >70 g ae/ha
- GR90 ORYSA ‘Clearfield 171’ (ORYSA (Oryza sativa ‘Clearfield 171’, rice), dose to kill or control 90 percent): >70 g ae/ha
- Mean Visual Injury (%)-21 Days After Application ORYSA ‘Wells’ (ORYSA (Oryza sativa ‘Wells’, rice), 2.19 g ae/ha): 0%
- Mean Visual Injury (%)-21 Days After Application ORYSA ‘Wells’ (ORYSA (Oryza sativa ‘Wells’, rice), 4.38 g ae/ha): 0%
- Mean Visual Injury (%)-21 Days After Application ORYSA ‘Wells’ (ORYSA (Oryza sativa ‘Wells’, rice), 8.75 g ae/ha): 0%
- Mean Visual Injury (%)-21 Days After Application ORYSA ‘Wells’ (ORYSA (Oryza sativa ‘Wells’, rice), 17.5 g ae/ha): 2%
- Mean Visual Injury (%)-21 Days After Application ORYSA ‘Wells’ (ORYSA (Oryza sativa ‘Wells’, rice), 35 g ae/ha): 0%
- Mean Visual Injury (%)-21 Days After Application ORYSA ‘Wells’ (ORYSA (Oryza sativa ‘Wells’, rice), 70 g ae/ha): 0%
- GR50 ORYSA ‘Wells’ (ORYSA (Oryza sativa ‘Wells’, rice), dose to kill or control 50 percent): >70 g ae/ha
- GR90 ORYSA ‘Wells’ (ORYSA (Oryza sativa ‘Wells’, rice), dose to kill or control 90 percent): >70 g ae/ha
- Mean Visual Injury (%)-21 Days After Application SCPJU (SCPJU (Scirpus juncoides, Japanese bulrush), 2.19 g ae/ha): 100%
- Mean Visual Injury (%)-21 Days After Application SCPJU (SCPJU (Scirpus juncoides, Japanese bulrush), 4.38 g ae/ha): 88%
- Mean Visual Injury (%)-21 Days After Application SCPJU (SCPJU (Scirpus juncoides, Japanese bulrush), 8.75 g ae/ha): 100%
- Mean Visual Injury (%)-21 Days After Application SCPJU (SCPJU (Scirpus juncoides, Japanese bulrush), 17.5 g ae/ha): 100%
- Mean Visual Injury (%)-21 Days After Application SCPJU (SCPJU (Scirpus juncoides, Japanese bulrush), 35 g ae/ha): 100%
- Mean Visual Injury (%)-21 Days After Application SCPJU (SCPJU (Scirpus juncoides, Japanese bulrush), 70 g ae/ha): 100%
- GR50 SCPJU (SCPJU (Scirpus juncoides, Japanese bulrush), dose to kill or control 50 percent): <42.19 g ae/ha
- GR90 SCPJU (SCPJU (Scirpus juncoides, Japanese bulrush), dose to kill or control 90 percent): 4.9 g ae/ha
- Mean Visual Injury (%)-21 Days After Application SEBEX (SEBEX (Sesbania exaltata, hemp sesbania), 2.19 g ae/ha): 53%
- Mean Visual Injury (%)-21 Days After Application SEBEX (SEBEX (Sesbania exaltata, hemp sesbania), 4.38 g ae/ha): 90%
- Mean Visual Injury (%)-21 Days After Application SEBEX (SEBEX (Sesbania exaltata, hemp sesbania), 8.75 g ae/ha): 99%
- Mean Visual Injury (%)-21 Days After Application SEBEX (SEBEX (Sesbania exaltata, hemp sesbania), 17.5 g ae/ha): 99%
- Mean Visual Injury (%)-21 Days After Application SEBEX (SEBEX (Sesbania exaltata, hemp sesbania), 35 g ae/ha): 100%
- Mean Visual Injury (%)-21 Days After Application SEBEX (SEBEX (Sesbania exaltata, hemp sesbania), 70 g ae/ha): 100%
- GR50 SEBEX (SEBEX (Sesbania exaltata, hemp sesbania), dose to kill or control 50 percent): <2.19 g ae/ha
- GR90 SEBEX (SEBEX (Sesbania exaltata, hemp sesbania), dose to kill or control 90 percent): 5.8 g ae/ha

Reference: patent US9518018B2, “3-alkoxy, thioalkyl and amino-4-amino-6-(substituted)picolinates and their use as herbicides” (Dow AgroSciences LLC, priority 2011, dated 2016)
